PubChem BioAssay (NCI)
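Where inhibition never reached the appropriate level, the endpoint shown equals the highest concentration tested. Otherwise, values were interpolated linearly from a five-concentration, 48-hour dose response in 96-well plates. The concentration for 50% growth inhibition is given as GI50. TGI: concentration producing complete growth inhibition.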

Tests used:
Assay in all cases: NCI tumour cell line growth inhibition, 48 h
MCF7 breast = test system: MCF7 breast
OVCAR-3 ovarian = test system: OVCAR-3 ovarian
PC-3 prostate = test system: PC-3 prostate
NCI-H460 lung = test system: NCI-H460 lung
SF-295 CNS = test system: SF-295 CNS
SNB-19 CNS = test system: SNB-19 CNS
HCC-2998 colon = test system: HCC-2998 colon
NCI-H522 lung = test system: NCI-H522 lung
RXF 393 renal = test system: RXF 393 renal
MOLT-4 leukemia = test system: MOLT-4 leukemia

SMILES	GI50 (MCF7 breast) [µM]	TGI (MCF7 breast) [µM]	GI50 (OVCAR-3 ovarian) [µM]	TGI (OVCAR-3 ovarian) [µM]	GI50 (PC-3 prostate) [µM]	TGI (PC-3 prostate) [µM]	GI50 (NCI-H460 lung) [µM]	TGI (NCI-H460 lung) [µM]	GI50 (SF-295 CNS) [µM]	TGI (SF-295 CNS) [µM]	GI50 (SNB-19 CNS) [µM]	TGI (SNB-19 CNS) [µM]	GI50 (HCC-2998 colon) [µM]	TGI (HCC-2998 colon) [µM]	GI50 (NCI-H522 lung) [µM]	TGI (NCI-H522 lung) [µM]	GI50 (RXF 393 renal) [µM]	TGI (RXF 393 renal) [µM]	GI50 (MOLT-4 leukemia) [µM]	TGI (MOLT-4 leukemia) [µM]
O=C1/C(=C/c2ccc(F)c(F)c2)CN(C(=O)C(Cl)Cl)C/C1=C\c1ccc(F)c(F)c1	0.0424	0.181	0.0709	0.234	0.0477	0.273	0.134	0.444	0.0454	0.21	0.0782	0.274	0.0934	0.235	0.166	0.503	0.182	0.399	0.0491	> 100
Cc1cc2c(cc1C)[n+](=O)c(C(=O)/C=C/c1ccc3c(c1)OCO3)c(C)n2[O-]		> 100		> 100		> 100		> 100		50		79.3		> 100		79.4		66.6		> 100
CN(C)C[C@H]1CCn2c(c(C3=C(c4cn(C)c5ccccc45)C(=O)NC3=O)c3ccccc32)C1	4.25	9.36	4.54	8.97	3.92	8.56	4.86	9.55	5.21	11.3	5.65	16.6	4.86	9.16	4.86	9.17	3.67	7.18	6.38	14
O=C(Nc1ccc2ncnc(Nc3ccc(Oc4cccc(F)c4)c(Cl)c3)c2c1)c1ccc(CN2CCOCC2)cc1	1.83	5.64	2.16	7	2.24	10.6	2.39	6.39	2.66	10.3	3.53	> 100	3.14	18.6	0.654	4.01	2.02	5.83	1.8	4.98
CCC#CC[C@H](O)C/C=C1/C(=O)C=C[C@@H]1C/C=C\CCCC(=O)OC	0.297	7.01	1.55	6.11	1.42	5.25	1.31	3.55	1.28	3.15	3.29	10.3	1.07	1.89	0.673	1.68	0.865	1.64	0.78	7.17
CC(=Nc1ccccc1)C1=C(O)C(Cc2cccc(F)c2)NC1=O (stereo not drawn)	0.0354	> 100			0.0399	> 100	0.0403	> 100	0.0312	0.184	0.156	> 100	0.144	3.1	0.0286	0.182	0.0186	0.0561	0.158	> 100
Nc1ncn(C2OC(COP(=O)(O)O)C(O)C2O)c(=O)n1 (stereo not drawn)		> 100		> 100		> 100		> 100		> 100		> 100		> 100		> 100		> 100		> 59.2
COc1cccc(OC(=O)c2ccc(C(F)(F)F)nc2Nc2c(C)cccc2Cl)c1	15.8	81.2	22.8	69.2	20	47.1	26.4	> 100	17.1	48.5	22.4	73.5	4.63	32.3	16	38.3	25	55.7	31.5	> 100
O=C1NC(O)c2ccccc2O1 (stereo not drawn)		> 100		> 100		> 100		> 100		> 100		> 100		> 100		> 100		> 100		> 100
C=C1C(=O)O[C@H]2[C@H]1CC/C(COC(=O)c1cn(C)c3ccccc13)=C\CC[C@@]1(C)O[C@@H]21	0.4	1.98	0.384	1.48	1.47	4.29	1.73	3.92	2.41	6.98	1.59	3.64	1.81	3.8	0.399	1.62	0.589	2.11	0.578	3.54
c1cc(CN2CCCNCCNCCCNCC2)ccc1CN1CCCNCCNCCCNCC1	> 100	> 100	> 100	> 100	> 100	> 100	> 100	> 100	> 100	> 100	> 100	> 100	> 100	> 100	> 100	> 100	> 100	> 100	> 100	> 100
O=P(O)(O)OCC1OC(n2cnc3c(NCc4ccco4)ncnc32)C(O)C1O (stereo not drawn)	0.776	> 21.6	0.422	1.65	0.927	12.3	3.04	21.4	2.53	> 35.1	4.18	> 100	3.61	> 30.2	1.14	19	0.965	4.95	0.339	1.9
CCOc1cc(C(=O)O)c2c(ccc3ccc(OC)c(OC)c32)c1OC		> 100		> 100		> 100		> 100		> 100		> 100		> 100		> 100		> 100		> 100
